Consider 17 molecules from patent US7863449B2, “Modulators of muscarinic receptors” (Vertex Pharmaceuticals Incorporated, priority 2004, dated 2011).

In one test the target is T1, M4 muscarinic receptor (Homo sapiens, UniProt P08173).
T1 construct: expressed in transfected cells; host or cells: CHO (M4-CHO)
T1 sequence (P08173 1-479): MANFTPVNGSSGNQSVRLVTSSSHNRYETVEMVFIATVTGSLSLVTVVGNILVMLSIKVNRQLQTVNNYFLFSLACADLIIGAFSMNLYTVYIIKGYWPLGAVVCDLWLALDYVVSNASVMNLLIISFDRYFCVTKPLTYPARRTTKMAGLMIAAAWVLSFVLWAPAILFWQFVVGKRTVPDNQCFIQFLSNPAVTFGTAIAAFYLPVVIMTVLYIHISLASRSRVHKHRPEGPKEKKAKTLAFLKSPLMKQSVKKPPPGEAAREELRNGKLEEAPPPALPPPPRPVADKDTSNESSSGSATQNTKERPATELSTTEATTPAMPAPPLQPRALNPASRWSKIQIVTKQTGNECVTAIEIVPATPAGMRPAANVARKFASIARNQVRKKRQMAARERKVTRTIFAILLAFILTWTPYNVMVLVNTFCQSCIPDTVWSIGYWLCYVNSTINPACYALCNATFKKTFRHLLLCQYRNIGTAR
The test is described as follows: Functional mobilization of intracellular calcium (FLIPR), M4-CHO cells. The test is classed as cell-based. The note with it: for Emax: 100% efficacy is the maximum response obtained using Carbachol as a control; for M4 Activity: M4-CHO cells, FLIPR calcium mobilization. On the procedure: (§1) Functional Mobilization of Intracellular Calcium to Determine Muscarinic Receptor Activity:
(§2) CHO cells expressing muscarinic receptors (M1 to M5) are grown as monolayers in tissue culture flasks at 37° C. in a humidified atmosphere containing 5% CO2 and passaged every 3-5 days. The growth media is Dulbecco's modified eagles medium (DMEM, Gibco Cat# 12430-054), containing 25 mM Hepes and supplemented with Fetal Bovine Serum (Hyclone, cat# SH30071.03), 0.1 mM of MEM non-essential amino acids (GIBCO, Cat# 11140-050), 1 mM MEM Sodium Pyruvate (GIBCO Cat# 11360-070) and 100 units/ml of Penicillin G and 100 μg/ml of Streptomycin (GIBCO Cat# 15140-122). The recombinant muscarinic receptor cell lines are grown under antibiotic pressure with media containing 25 μg/ml zeocin and 500 μg/ml G418 (M1-CHO), 4 μg/ml puromycin, 50 μg/ml zeocin and 2.5 μg/ml blasticidin (M2 and M4-CHO) or 50 μg/ml zeocin and 4 μg/ml puromycin (M3 and M5-CHO).
(§3) Cells are harvested at 80-90% confluence using Versene (GIBCO Cat# 15040-066), collected by centrifugation and seeded 18-24 hrs prior to running the calcium assay at a density of 5,000-10,000 cells/well in […], clear-bottomed 384-well plates (BD Biocoat, poly-D-lysine, Cat#356663). The day of the experiment, the cells are washed with a plate washer (Bioteck Instruments, ELX 405) using bath1 buffer (140-mM NaCl, 4.5-mM KCl, 2-mM CaCl2, 1-mM MgCl2, 10-mM Hepes-Na, 10-mM Glucose, pH 7.4, with NaOH) containing 1 mM Probenecid. Next, the calcium dye Fluo-3 (25 μl/well of Fluo-3 AM at 4 μM, Molecular Probes F-1241, in Bath 1 buffer containing 1 mM Probenecid) is added to the 25 μl of Bath 1 remaining in each well after the plate wash and the dye is loaded at 37° C. in the tissue culture incubator for 60-90 min. The fluorescent dye is removed using the plate washer with Bath 1 containing 1 mM Probenecid, leaving 25 μl/well of this solution after the wash. Alternatively, cells can be loaded with the calcium indicator from Molecular Devices (Calcium 3 Assay Reagents, Cat # R7181) adding 5 μl of a 5× solution dye in Bath 1 containing 1 mM Probenecid (10 ml per dye flask cat# R7182 to generate a solution 20×) to 20 μl of the same buffer. After loading for 60 min, the experiment can be run without having to remove the dye.
(§4) Compounds are prepared at a 2× fold concentration in a 96-well plate (round bottom, Costar Corning cat# 3656), by reconstituting the pre-spotted compounds in bath 1 containing 1 mM probenecid. The final concentration DMSO is 0.5%, and the amount of DMSO is normalized across the assay plate. To determine an agonist action of the compounds on muscarinic receptors, the reconstituted compounds are added (25 μl compound/well) to the cell assay plate (containing 25 μl/well) using the multi-channel robotic system of the FLIPR 3 Instrument (Molecular Devices, Sunnyvale, Calif.). To determine a functional inhibitory action of the compounds on muscarinic receptors, the reconstituted compounds are added (25 μl compound/well) to the assay plate and pre-incubated for 15 min prior to adding 25 μl of Carbachol at 3× the EC80 for each muscarinic subtype. Alternatively, the compounds can be co-applied simultaneously with the agonist. In both assay modes, the fluorescence is recorded for 60 sec (excitation wavelength is […] and emission wavelength 540 nm) using the FLIPR 3 instrument.
(§5) The potency, efficacy and selectivity of the muscarinic compounds were evaluated by screening the compound activity across the whole family (M1 to M5 cells). Compounds were also screened for activity on other proteins such as other GPCRs and ion channels to determine selectivity on M4 receptors.
On the technique in general: Calcium assays in cells follow changes in intracellular calcium, usually with a dye or a luminescent sensor.

For the next test, the target named is T2, M1 muscarinic receptor (Homo sapiens, UniProt P11229).
T2 construct: expressed in transfected cells; host or cells: CHO (M1-CHO)
T2 sequence (P11229 1-460): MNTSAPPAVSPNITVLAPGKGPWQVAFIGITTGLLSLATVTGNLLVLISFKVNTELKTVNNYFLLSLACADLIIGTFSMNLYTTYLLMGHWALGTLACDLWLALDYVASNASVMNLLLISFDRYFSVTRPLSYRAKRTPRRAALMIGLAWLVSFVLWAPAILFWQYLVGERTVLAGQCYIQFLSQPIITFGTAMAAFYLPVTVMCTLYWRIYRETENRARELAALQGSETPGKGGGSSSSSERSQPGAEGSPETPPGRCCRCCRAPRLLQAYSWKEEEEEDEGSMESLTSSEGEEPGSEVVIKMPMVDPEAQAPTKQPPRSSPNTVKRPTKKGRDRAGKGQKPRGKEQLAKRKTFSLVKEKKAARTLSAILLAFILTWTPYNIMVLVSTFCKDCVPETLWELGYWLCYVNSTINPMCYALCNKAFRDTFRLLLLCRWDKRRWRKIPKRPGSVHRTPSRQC
The test is described as follows: Functional mobilization of intracellular calcium (FLIPR), M1-CHO cells. The format is cell-based. The note with it: for Emax: 100% efficacy is the maximum response obtained using Carbachol as a control; for M1 Activity: M1-CHO cells, FLIPR calcium mobilization. On the procedure:
as §1, §2, §3, §4, §5

Where only a bound is given, the exact number is not on record here.

With `CCOC(=O)N1C2CCC1CC(N1CCC3(CC1)CN(S(=O)(=O)c1ccc(C)cc1)Cc1ccccc13)C2` (centres unmarked) [compound 18], on M4 muscarinic receptor, the Emax was in the range of 25 to 100% and the “M4 Activity” value is on record as “+++ (activity was measured to be less than 1.0 μM)”. Moreover, at M1 muscarinic receptor, the Emax lay in the range of 25 to 100% and the “M1 Activity” value is reported as “+++ (activity was measured to be less than 1.0 μM)”.
As to `O=C1OC2(CCN(C[C@H]3C[C@H]4C=C[C@H]3C4)CC2)c2ccc(Cl)cc21` [compound 19], on M4 muscarinic receptor, the Emax was less than 25% and the “M4 Activity” value is on record as “++ (activity was measured to be from 1.0 μM to 5.0 μM)”. In addition, at M1 muscarinic receptor, the Emax was 25 to 100% and the “M1 Activity” value is “++ (activity was measured to be from 1.0 μM to 5.0 μM)”.
For the molecule `CCOC(=O)N1CCC(N2CCC3(CC2)c2ccccc2C(=O)N3Cc2ccccc2)CC1` [compound 20, ethyl 4-(2-benzyl-3-oxospiro[isoindoline-1,4′-piperidine]-1′-yl)piperidine-1-carboxylate], on M4 muscarinic receptor, the Emax was less than 25% and the “M4 Activity” value is on record as “+ (activity was measured to be greater than 5.0 μM)”. Besides, on M1 muscarinic receptor, the Emax lay within 25 to 100% and the “M1 Activity” value is recorded as “++ (activity was measured to be from 1.0 μM to 5.0 μM)”.
With `CC(=O)N1Cc2ccccc2C2(CCN(C3CC4CCC(C4)C3)CC2)C1` (centres unmarked) [compound 21], at M4 muscarinic receptor, the Emax lay within 25 to 100% and the “M4 Activity” value is listed as “+ (activity was measured to be greater than 5.0 μM)”. On M1 muscarinic receptor, the Emax was in the range of 25 to 100% and the “M1 Activity” value was “+ (activity was measured to be greater than 5.0 μM)”.
With `CCOC(=O)N1CCC(CN2CCC3(CC2)CN(C(=O)OCCOC)Cc2ccccc23)CC1` [compound 22], on M4 muscarinic receptor, the Emax fell in the range of 25 to 100% and the “M4 Activity” value was “+++ (activity was measured to be less than 1.0 μM)”. Besides, on M1 muscarinic receptor, the Emax fell in the range of 25 to 100% and the “M1 Activity” value was “+++ (activity was measured to be less than 1.0 μM)”.
As to `CCOC(=O)N1CCC(N2CCC3(CC2)CN(C(=O)OCCOC)Cc2ccccc23)CC1` [compound 23], on M4 muscarinic receptor, the Emax fell in the range of 25 to 100% and the “M4 Activity” value is listed as “+++ (activity was measured to be less than 1.0 μM)”. Further, on M1 muscarinic receptor, the Emax fell in the range of 25 to 100% and the “M1 Activity” value is given as “+++ (activity was measured to be less than 1.0 μM)”.
With `CCCS(=O)(=O)N1Cc2ccccc2C2(CCN(C3CC4CCC(C3)N4C(=O)O[C@@H]3CCOC3)CC2)C1` (some centres unmarked) [compound 24], at M4 muscarinic receptor, the Emax is 25 to 100% and the “M4 Activity” value is on record as “+++ (activity was measured to be less than 1.0 μM)”. Moreover, on M1 muscarinic receptor, the Emax is 25 to 100% and the “M1 Activity” value is reported as “+++ (activity was measured to be less than 1.0 μM)”.
On to `CCOC(=O)N1CCC(N2CCC3(CC2)CN(S(=O)(=O)c2c(C)noc2C)Cc2ccccc23)CC1` [compound 25], for which, on M4 muscarinic receptor, the Emax lay within 25 to 100% and the “M4 Activity” value was “+++ (activity was measured to be less than 1.0 μM)”. Besides, on M1 muscarinic receptor, the Emax lay in the range of 25 to 100% and the “M1 Activity” value was “+++ (activity was measured to be less than 1.0 μM)”.
Consider `CCOC(=O)N1C2CCC1CC(N1CCC3(CC1)CN(C(=O)OC1CCC1)Cc1ccccc13)C2` (centres unmarked) [compound 27], for which, on M4 muscarinic receptor, the Emax was in the range of 25 to 100% and the “M4 Activity” value is “+++ (activity was measured to be less than 1.0 μM)”. Also, at M1 muscarinic receptor, the Emax is 25 to 100% and the “M1 Activity” value is reported as “+++ (activity was measured to be less than 1.0 μM)”.
For `CC(=O)N1Cc2ccccc2C2(CCN(C3CCN(C(=O)O[C@@H]4CCOC4)CC3)CC2)C1` [compound 32], on M4 muscarinic receptor, the Emax was in the range of 25 to 100% and the “M4 Activity” value is “+++ (activity was measured to be less than 1.0 μM)”. At M1 muscarinic receptor, the Emax lay within 25 to 100% and the “M1 Activity” value was “+++ (activity was measured to be less than 1.0 μM)”.
As to `CC(=O)N1Cc2ccccc2C2(CCN(CC3CCCCC3)CC2)C1` [compound 35], at M4 muscarinic receptor, the Emax is less than 25% and the “M4 Activity” value was “++ (activity was measured to be from 1.0 μM to 5.0 μM)”. In addition, at M1 muscarinic receptor, the Emax was less than 25% and the “M1 Activity” value is listed as “+ (activity was measured to be greater than 5.0 μM)”.
Consider `COc1ccc(CN2CCC3(CC2)CN(C(C)=O)Cc2ccccc23)cn1` [compound 37], for which, on M4 muscarinic receptor, the Emax is less than 25% and the “M4 Activity” value is given as “+ (activity was measured to be greater than 5.0 μM)”. Further, at M1 muscarinic receptor, the Emax was in the range of 25 to 100% and the “M1 Activity” value was “+ (activity was measured to be greater than 5.0 μM)”.
As to `CC(=O)N1Cc2ccccc2C2(CCN(Cc3ccccn3)CC2)C1` [compound 40], on M4 muscarinic receptor, the Emax was less than 25% and the “M4 Activity” value is reported as “+ (activity was measured to be greater than 5.0 μM)”. In addition, at M1 muscarinic receptor, the Emax was less than 25% and the “M1 Activity” value was “+ (activity was measured to be greater than 5.0 μM)”.
With `Cc1ccc2c(c1)C1(CCN(CC3CCOCC3)CC1)OC2=O` [compound 41], on M4 muscarinic receptor, the Emax was less than 25% and the “M4 Activity” value is recorded as “+ (activity was measured to be greater than 5.0 μM)”. On M1 muscarinic receptor, the Emax lay in the range of 25 to 100% and the “M1 Activity” value is reported as “+ (activity was measured to be greater than 5.0 μM)”.
Turning to `O=C(c1ccccc1)N1CCC(N2CCC3(CC2)c2ccccc2C(=O)N3Cc2ccccc2)CC1` [compound 42], on M4 muscarinic receptor, the Emax is less than 25% and the “M4 Activity” value is “+ (activity was measured to be greater than 5.0 μM)”. At M1 muscarinic receptor, the Emax is less than 25% and the “M1 Activity” value is “+ (activity was measured to be greater than 5.0 μM)”.
Consider `CC(=O)N1Cc2ccccc2C2(CCN(CC3CCN(C(=O)O[C@@H]4CCOC4)CC3)CC2)C1` [compound 45], for which, on M4 muscarinic receptor, the Emax is less than 25% and the “M4 Activity” value is listed as “+ (activity was measured to be greater than 5.0 μM)”. Besides, on M1 muscarinic receptor, the Emax was less than 25% and the “M1 Activity” value was “+ (activity was measured to be greater than 5.0 μM)”.
In the case of `CCOC(=O)N1CCC(N2CCC3(CC2)CN(C(=O)c2ccno2)Cc2ccccc23)CC1` [compound 46], on M4 muscarinic receptor, the Emax fell in the range of 25 to 100% and the “M4 Activity” value is reported as “+++ (activity was measured to be less than 1.0 μM)”. At M1 muscarinic receptor, the Emax is 25 to 100% and the “M1 Activity” value was “+++ (activity was measured to be less than 1.0 μM)”.

By Emax is commonly meant the greatest response seen or fitted, relative to the assay's reference.
